# Experimental data from patent US20260048047A1, “SMALL-MOLECULE ACTIVATORS OF MYCOBACTERIUM TUBERCULOSIS ADENYLYL CYCLASE” (priority 2022, published 2026).
# Read-outs that look alike come from different tables or passages of the source.
# Test system: M. tuberculosis
# Assay: Extracellular activity against M. tuberculosis in cholesterol media (Alamar Blue reduction assay)
# Assay type: cell-based, Mycobacterium tuberculosis
# Settings: 7H12-Cholesterol media, 10 days, read-out: Cholesterol broth: alamar blue--EC50
# [1] = Mycobacterium tuberculosis, 240 h
SMILES,EC50 [1] [µM],EC50 [µM]
"O=C(Cc1cc(=O)[nH]c(=O)[nH]1)N1CCC(c2nc(-c3ccc(F)cc3)no2)CC1 [Compound 1, 6-(2-(4-(3-(4-fluorophenyl)-1,2,4-oxadiazol-5-yl)piperidin-1-yl)-2-oxoethyl)pyrimidine-2,4(1H,3H)-dione]",0.784,
"O=C(Cc1cnccn1)N1CCC(n2nnc(-c3ccc(F)cc3)n2)CC1 [Compound 2, 1-(4-(5-(4-fluorophenyl)-2H-tetrazol-2-yl)piperidin-1-yl)-2-(pyrazin-2-yl)ethan-1-one]",,> 10
"O=c1cc(CN2CCC(c3nc(-c4ccc(Cl)c(Cl)c4)no3)CC2)[nH]c(=O)[nH]1 [Compound 3, 6-((4-(3-(3,4-dichlorophenyl)-1,2,4-oxadiazol-5-yl)piperidin-1-yl)methyl)pyrimidine-2,4(1H,3H)-dione]",0.179,
"O=C(Cc1cnccn1)N1CCC(n2nnc(-c3ccc(F)cc3)n2)CC1 [Compound 4, 1-(4-(5-(4-fluorophenyl)-2H-tetrazol-2-yl)piperidin-1-yl)-2-(pyrazin-2-yl)ethan-1-one]",,0.122
"CC(C)c1noc(CC(=O)N2CCC(c3nc(-c4ccc(Cl)c(Cl)c4)no3)CC2)n1 [Compound 5, 1-(4-(3-(3,4-dichlorophenyl)-1,2,4-oxadiazol-5-yl)piperidin-1-yl)-2-(3-isopropyl-1,2,4-oxadiazol-5-yl)ethan-1-one]",1.43,
"CC(C)c1noc(CC(=O)N2CCC(c3nc(-c4ccc(F)cc4)no3)CC2)n1 [Compound 6, 1-(4-(3-(4-fluorophenyl)-1,2,4-oxadiazol-5-yl)piperidin-1-yl)-2-(3-isopropyl-1,2,4-oxadiazol-5-yl)ethan-1-one]",2.98,
"Cc1cncnc1CC(=O)N1CCC(c2nc(C3CCCCC3)no2)CC1 [Compound 7, 1-(4-(3-cyclohexyl-1,2,4-oxadiazol-5-yl)piperidin-1-yl)-2-(5-methylpyrimidin-4-yl)ethan-1-one]",> 25,
"Cc1cncnc1CC(=O)N1CCC(c2nc(-c3ccc(Cl)c(Cl)c3)no2)CC1 [Compound 8, 1-(4-(3-(3,4-dichlorophenyl)-1,2,4-oxadiazol-5-yl)piperidin-1-yl)-2-(5-methylpyrimidin-4-yl)ethan-1-one]",0.479,
"Cc1cncnc1CC(=O)N1CCC(c2nc(-c3ccc(F)cc3)no2)CC1 [Compound 9, 1-(4-(3-(4-fluorophenyl)-1,2,4-oxadiazol-5-yl)piperidin-1-yl)-2-(5-methylpyrimidin-4-yl)ethan-1-one]",3.68,
"Cc1conc1CC(=O)N1CCC(c2nc(-c3ccc(Cl)c(Cl)c3)no2)CC1 [Compound 10, 1-(4-(3-(3,4-dichlorophenyl)-1,2,4-oxadiazol-5-yl)piperidin-1-yl)-2-(4-methylisoxazol-3-yl)ethan-1-one]",0.284,
"Cc1conc1CC(=O)N1CCC(c2nc(-c3ccc(F)cc3)no2)CC1 [Compound 11, 1-(4-(3-(4-fluorophenyl)-1,2,4-oxadiazol-5-yl)piperidin-1-yl)-2-(4-methylisoxazol-3-yl)ethan-1-one]",1.43,
"Cc1nc(CC(=O)N2CCC(c3nc(-c4ccc(F)cc4)no3)CC2)no1 [Compound 12, 1-(4-(3-(4-fluorophenyl)-1,2,4-oxadiazol-5-yl)piperidin-1-yl)-2-(5-methyl-1,2,4-oxadiazol-3-yl)ethan-1-one]",> 10,
"Cc1nccnc1CC(=O)N1CCC(c2nc(C3CCCCC3)no2)CC1 [Compound 13, 1-(4-(3-cyclohexyl-1,2,4-oxadiazol-5-yl)piperidin-1-yl)-2-(3-methylpyrazin-2-yl)ethan-1-one]",> 25,
"Cc1nccnc1CC(=O)N1CCC(c2nc(-c3ccc(Cl)c(Cl)c3)no2)CC1 [Compound 14, 1-(4-(3-(3,4-dichlorophenyl)-1,2,4-oxadiazol-5-yl)piperidin-1-yl)-2-(3-methylpyrazin-2-yl)ethan-1-one]",8.32,
"Cc1nccnc1CC(=O)N1CCC(c2nc(-c3ccc(F)cc3)no2)CC1 [Compound 15, 1-(4-(3-(4-fluorophenyl)-1,2,4-oxadiazol-5-yl)piperidin-1-yl)-2-(3-methylpyrazin-2-yl)ethan-1-one]",1.22,
"Cc1nnn(CC(=O)N2CCC(c3nc(-c4ccc(Cl)c(F)c4)no3)CC2)n1 [Compound 16, 1-(4-(3-(4-chloro-3-fluorophenyl)-1,2,4-oxadiazol-5-yl)piperidin-1-yl)-2-(5-methyl-2H-tetrazol-2-yl)ethan-1-one]",0.79,
"Cc1nnnn1CC(=O)N1CCC(c2nc(-c3ccc(Cl)c(F)c3)no2)CC1 [Compound 17, 1-(4-(3-(4-chloro-3-fluorophenyl)-1,2,4-oxadiazol-5-yl)piperidin-1-yl)-2-(5-methyl-1H-tetrazol-1-yl)ethan-1-one]",0.16,
"Cc1noc(CC(=O)N2CCC(c3nc(C4CC5CCC4C5)no3)CC2)n1 (stereo not drawn) [Compound 18, 1-(4-(3-(bicyclo[2.2.1]heptan-2-yl)-1,2,4-oxadiazol-5-yl)piperidin-1-yl)-2-(3-methyl-1,2,4-oxadiazol-5-yl)ethan-1-one]",> 10,

SMILES,EC50 [1] [µM],EC50 [µM]
"Cc1noc(CC(=O)N2CCC(c3nc(C4CCC5(CC4)OCCO5)no3)CC2)n1 [Compound 19, 1-(4-(3-(1,4-dioxaspiro[4.5]decan-8-yl)-1,2,4-oxadiazol-5-yl)piperidin-1-yl)-2-(3-methyl-1,2,4-oxadiazol-5-yl)ethan-1-one]",> 10,
"Cc1noc(CC(=O)N2CCC(c3nc(C4CCCC4)no3)CC2)n1 [Compound 20, 1-(4-(3-cyclopentyl-1,2,4-oxadiazol-5-yl)piperidin-1-yl)-2-(3-methyl-1,2,4-oxadiazol-5-yl)ethan-1-one]",> 25,
"Cc1noc(CC(=O)N2CCC(n3nnc(C4CCCC4)n3)CC2)n1 [Compound 21, 1-(4-(5-cyclopentyl-2H-tetrazol-2-yl)piperidin-1-yl)-2-(3-methyl-1,2,4-oxadiazol-5-yl)ethan-1-one]",7.35,
"Cc1noc(CC(=O)N2CCC(c3nc(C4CCCC5CC54)no3)CC2)n1 (stereo not drawn) [Compound 22, 1-(4-(3-(bicyclo[4.1.0]heptan-2-yl)-1,2,4-oxadiazol-5-yl)piperidin-1-yl)-2-(3-methyl-1,2,4-oxadiazol-5-yl)ethan-1-one]",0.89,
"Cc1noc(CC(=O)N2CCC(c3nc(C4CCCCC4)no3)CC2)n1 [Compound 23, 1-(4-(3-cyclohexyl-1,2,4-oxadiazol-5-yl)piperidin-1-yl)-2-(3-methyl-1,2,4-oxadiazol-5-yl)ethan-1-one]",> 10,
"Cc1noc(CC(=O)N2CCC(n3nnc(C4CCCCC4)n3)CC2)n1 [Compound 24, 1-(4-(5-cyclohexyl-2H-tetrazol-2-yl)piperidin-1-yl)-2-(3-methyl-1,2,4-oxadiazol-5-yl)ethan-1-one]",> 25,
"Cc1noc(CC(=O)N2CCC(O)(c3nc(C4CCCCC4)no3)CC2)n1 [Compound 25, 1-(4-(3-cyclohexyl-1,2,4-oxadiazol-5-yl)-4-hydroxypiperidin-1-yl)-2-(3-methyl-1,2,4-oxadiazol-5-yl)ethan-1-one]",> 10,
"Cc1noc(CC(=O)N2CCC(c3nc(C45CCC(CC4)C5)no3)CC2)n1 [Compound 26, 1-(4-(3-(bicyclo[2.2.1]heptan-1-yl)-1,2,4-oxadiazol-5-yl)piperidin-1-yl)-2-(3-methyl-1,2,4-oxadiazol-5-yl)ethan-1-one]",> 25,
"Cc1noc(CC(=O)N2CCC(c3nc(C4(C)CCCCC4)no3)CC2)n1 [Compound 27, 2-(3-methyl-1,2,4-oxadiazol-5-yl)-1-(4-(3-(1-methylcyclohexyl)-1,2,4-oxadiazol-5-yl)piperidin-1-yl)ethan-1-one]",> 25,
"Cc1noc(CC(=O)N2CCC(c3nc(C4CC4(C)C)no3)CC2)n1 (stereo not drawn) [Compound 28, 1-(4-(3-(2,2-dimethylcyclopropyl)-1,2,4-oxadiazol-5-yl)piperidin-1-yl)-2-(3-methyl-1,2,4-oxadiazol-5-yl)ethan-1-one]",> 25,
"Cc1noc(CC(=O)N2CCC(c3nc(C4CCC(C)(C)C4)no3)CC2)n1 (stereo not drawn) [Compound 29, 1-(4-(3-(3,3-dimethylcyclopentyl)-1,2,4-oxadiazol-5-yl)piperidin-1-yl)-2-(3-methyl-1,2,4-oxadiazol-5-yl)ethan-1-one]",3.73,
"Cc1noc(CC(=O)N2CCC(c3nc(C4CCC(C)(C)CC4)no3)CC2)n1 [Compound 30, 1-(4-(3-(4,4-dimethylcyclohexyl)-1,2,4-oxadiazol-5-yl)piperidin-1-yl)-2-(3-methyl-1,2,4-oxadiazol-5-yl)ethan-1-one]",1.14,
"Cc1noc(CC(=O)N2CCC(c3nc(C4C[C@@H](C)C[C@@H](C)C4)no3)CC2)n1 (stereo partly drawn) [Compound 31, 1-(4-(3-((3R,5S)-3,5-dimethylcyclohexyl)-1,2,4-oxadiazol-5-yl)piperidin-1-yl)-2-(3-methyl-1,2,4-oxadiazol-5-yl)ethan-1-one]",> 25,
"Cc1noc(CC(=O)N2CCC(c3nc(-c4ccc(Cl)cc4Cl)no3)CC2)n1 [Compound 32, 1-(4-(3-(2,4-dichlorophenyl)-1,2,4-oxadiazol-5-yl)piperidin-1-yl)-2-(3-methyl-1,2,4-oxadiazol-5-yl)ethan-1-one]",0.718,
"Cc1noc(CC(=O)N2CCC(c3nc(-c4ccc(Cl)c(Cl)c4)no3)CC2)n1 [Compound 33, 1-(4-(3-(3,4-dichlorophenyl)-1,2,4-oxadiazol-5-yl)piperidin-1-yl)-2-(3-methyl-1,2,4-oxadiazol-5-yl)ethan-1-one]",0.14,
"Cc1noc(CC(=O)N2CCC(c3nc(-c4ccc(Cl)cc4)no3)CC2)n1 [Compound 34, 1-(4-(3-(4-chlorophenyl)-1,2,4-oxadiazol-5-yl)piperidin-1-yl)-2-(3-methyl-1,2,4-oxadiazol-5-yl)ethan-1-one]",0.399,
"Cc1noc(CC(=O)N2CCC(n3nnc(-c4ccc(Cl)cc4)n3)CC2)n1 [Compound 35, 1-(4-(5-(4-chlorophenyl)-2H-tetrazol-2-yl)piperidin-1-yl)-2-(3-methyl-1,2,4-oxadiazol-5-yl)ethan-1-one]",1.08,
"Cc1noc(CC(=O)N2CCC(c3nc(-c4cccc(Cl)c4)no3)CC2)n1 [Compound 36, 1-(4-(3-(3-chlorophenyl)-1,2,4-oxadiazol-5-yl)piperidin-1-yl)-2-(3-methyl-1,2,4-oxadiazol-5-yl)ethan-1-one]",1.63,
